Reference: patent US12685311B2, “Environmentally friendly biocidal quaternized amine compound” (Baker Hughes Oilfield Operations LLC, priority 2023, dated 2026)

tested on: microbial population (oilfield produced waters containing a range of microbes); experiment: ATP quantification of oilfield produced waters after biocide treatment; assay type: cell-based; conditions: 400 ppm, after four hours, oilfield produced waters amended with nutrients, versus untreated control
Experimental: Laboratory tests were performed to observe the environmentally friendly biocide of one embodiment for its ability to reduce microbial populations. The performance of the environmentally friendly biocide was further compared with that of two non-biodegradable biocidal quaternary amine compounds: alkyldimethylbenxylammonium chloride (ADBAC) and didecyldimethylammonium chloride (DDAC).
Test bottles were prepared with oilfield produced waters amended with nutrients containing a range of microbes. These bottles were treated with 400 ppm of either di(dimethyl(alkyl)ammonium chloride) ethanoyloxy-oxo, ADBAC, or DDAC, with one test bottle left as an untreated control. After four hours, ATP quantification and serial dilution using Modified Postgate's B media were performed for the various test bottles.

Point of comparison: “alkyldimethylbenxylammonium chloride [ADBAC]”, “reduction of the microbial population via ATP” value 99.16%. Against it:
- CCCCCCCCCC[N+](C)(C)CCCCCCCCCC.[Cl-] [DDAC, didecyldimethylammonium chloride] — lower, 99.06%
- di(dimethyl(alkyl)ammonium chloride) ethanoyloxy-oxo — lower, 96.79%
